One assay has as its target Acetylcholinesterase (Electrophorus electricus, UniProt O42275).
The next assay deals with SH-SY5Y. The experiment in a line: cells. As to conditions: Homo sapiens, 1 h.
Another assay deals with HepG2. The experiment in a line: cells. As to conditions: Homo sapiens, HepG2, 1 h.
The next assay concerns the target Cholinesterase (Equus caballus, UniProt P81908).
The target of the next assay is D(2) dopamine receptor (Homo sapiens, UniProt P14416). The experiment in a line: biochemical.
The target in assay [1] is 5-hydroxytryptamine receptor 2A (Homo sapiens, UniProt P28223). Description: biochemical.
Assay [2] addresses 5-hydroxytryptamine receptor 7 (Homo sapiens, UniProt P34969). Description: biochemical.
For assay [3], the target named is T1, 5-hydroxytryptamine receptor 6 (Homo sapiens, UniProt P50406). Description: biochemical.
For assay [4], the target named is T1, 5-hydroxytryptamine receptor 6. The conditions noted are these: 1321N1, filed as antagonist, dose 10.0 mM, time 30.0 min.
The next assay is described as follows: cells. The conditions noted are these: Rattus norvegicus, Whole blood cell, 0.05 h.

The structures appear in SMILES notation.

Chain of Cholinesterase (P81908 whole entry): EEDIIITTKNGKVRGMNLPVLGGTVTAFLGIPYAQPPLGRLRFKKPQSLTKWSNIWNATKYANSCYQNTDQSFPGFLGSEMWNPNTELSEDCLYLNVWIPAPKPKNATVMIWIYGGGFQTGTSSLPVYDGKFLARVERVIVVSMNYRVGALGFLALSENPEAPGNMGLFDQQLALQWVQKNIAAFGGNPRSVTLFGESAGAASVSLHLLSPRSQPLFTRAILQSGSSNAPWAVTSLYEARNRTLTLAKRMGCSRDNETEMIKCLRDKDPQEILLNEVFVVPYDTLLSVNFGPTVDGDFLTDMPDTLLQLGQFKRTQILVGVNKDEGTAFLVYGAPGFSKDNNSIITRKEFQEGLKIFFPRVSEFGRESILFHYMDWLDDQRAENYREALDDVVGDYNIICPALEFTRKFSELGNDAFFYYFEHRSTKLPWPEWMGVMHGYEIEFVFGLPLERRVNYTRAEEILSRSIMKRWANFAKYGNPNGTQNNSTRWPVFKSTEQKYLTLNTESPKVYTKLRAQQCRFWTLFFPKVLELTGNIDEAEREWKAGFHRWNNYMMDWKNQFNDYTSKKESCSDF
Chain of 5-hydroxytryptamine receptor 2A (P28223 whole entry): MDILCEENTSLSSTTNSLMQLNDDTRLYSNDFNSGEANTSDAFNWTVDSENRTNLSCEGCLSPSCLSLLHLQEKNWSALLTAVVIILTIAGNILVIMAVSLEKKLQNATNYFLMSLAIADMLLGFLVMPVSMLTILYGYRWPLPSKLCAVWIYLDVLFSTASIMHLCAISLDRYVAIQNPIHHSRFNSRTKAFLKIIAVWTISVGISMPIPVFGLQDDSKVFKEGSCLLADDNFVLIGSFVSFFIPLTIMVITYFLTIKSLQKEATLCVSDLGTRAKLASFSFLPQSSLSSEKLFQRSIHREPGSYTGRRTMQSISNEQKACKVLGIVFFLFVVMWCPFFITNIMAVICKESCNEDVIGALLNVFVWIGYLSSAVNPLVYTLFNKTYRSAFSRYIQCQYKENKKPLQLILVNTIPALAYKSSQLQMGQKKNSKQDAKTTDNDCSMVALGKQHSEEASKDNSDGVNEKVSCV
Chain of 5-hydroxytryptamine receptor 7 (P34969 whole entry): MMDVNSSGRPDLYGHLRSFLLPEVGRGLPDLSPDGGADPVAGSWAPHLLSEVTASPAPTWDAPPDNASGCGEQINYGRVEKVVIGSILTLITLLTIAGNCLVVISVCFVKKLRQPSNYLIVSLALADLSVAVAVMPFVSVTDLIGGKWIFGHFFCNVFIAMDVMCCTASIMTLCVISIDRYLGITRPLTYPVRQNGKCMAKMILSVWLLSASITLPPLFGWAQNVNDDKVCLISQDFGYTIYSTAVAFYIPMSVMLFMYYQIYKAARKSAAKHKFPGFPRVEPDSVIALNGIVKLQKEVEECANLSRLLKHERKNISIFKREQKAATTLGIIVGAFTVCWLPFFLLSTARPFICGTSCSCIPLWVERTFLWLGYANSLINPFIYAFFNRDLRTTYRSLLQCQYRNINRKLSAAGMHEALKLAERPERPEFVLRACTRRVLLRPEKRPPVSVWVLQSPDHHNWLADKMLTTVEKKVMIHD
Chain of Acetylcholinesterase (O42275 whole entry): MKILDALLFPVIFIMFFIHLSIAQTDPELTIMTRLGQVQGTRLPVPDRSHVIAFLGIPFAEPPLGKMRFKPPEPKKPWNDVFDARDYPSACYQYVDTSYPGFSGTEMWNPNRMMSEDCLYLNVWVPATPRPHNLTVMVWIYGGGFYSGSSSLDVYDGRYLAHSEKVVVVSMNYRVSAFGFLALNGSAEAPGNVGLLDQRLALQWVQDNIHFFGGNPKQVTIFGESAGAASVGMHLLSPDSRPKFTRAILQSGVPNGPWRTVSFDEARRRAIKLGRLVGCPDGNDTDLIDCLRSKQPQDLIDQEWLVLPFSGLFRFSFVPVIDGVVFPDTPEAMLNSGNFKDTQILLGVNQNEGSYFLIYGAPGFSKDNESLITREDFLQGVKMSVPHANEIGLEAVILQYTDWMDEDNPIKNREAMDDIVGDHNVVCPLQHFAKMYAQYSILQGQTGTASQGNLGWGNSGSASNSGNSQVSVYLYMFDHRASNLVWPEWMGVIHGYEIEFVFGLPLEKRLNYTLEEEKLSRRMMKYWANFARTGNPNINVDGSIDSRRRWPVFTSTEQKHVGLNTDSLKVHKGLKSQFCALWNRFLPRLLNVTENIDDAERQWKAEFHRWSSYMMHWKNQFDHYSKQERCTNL
Chain of D(2) dopamine receptor (P14416 whole entry): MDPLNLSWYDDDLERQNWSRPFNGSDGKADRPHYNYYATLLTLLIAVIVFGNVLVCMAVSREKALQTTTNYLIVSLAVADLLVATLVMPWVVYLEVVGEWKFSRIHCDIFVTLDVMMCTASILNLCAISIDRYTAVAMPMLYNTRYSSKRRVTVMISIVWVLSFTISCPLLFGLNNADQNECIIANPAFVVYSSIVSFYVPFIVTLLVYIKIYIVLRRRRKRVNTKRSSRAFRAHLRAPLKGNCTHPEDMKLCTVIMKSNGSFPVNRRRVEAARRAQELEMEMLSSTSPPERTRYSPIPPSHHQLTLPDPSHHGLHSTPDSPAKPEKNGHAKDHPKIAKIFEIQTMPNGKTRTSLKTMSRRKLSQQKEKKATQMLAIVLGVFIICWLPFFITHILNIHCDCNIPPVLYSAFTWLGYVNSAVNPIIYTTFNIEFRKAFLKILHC
T1 sequence (P50406 whole entry): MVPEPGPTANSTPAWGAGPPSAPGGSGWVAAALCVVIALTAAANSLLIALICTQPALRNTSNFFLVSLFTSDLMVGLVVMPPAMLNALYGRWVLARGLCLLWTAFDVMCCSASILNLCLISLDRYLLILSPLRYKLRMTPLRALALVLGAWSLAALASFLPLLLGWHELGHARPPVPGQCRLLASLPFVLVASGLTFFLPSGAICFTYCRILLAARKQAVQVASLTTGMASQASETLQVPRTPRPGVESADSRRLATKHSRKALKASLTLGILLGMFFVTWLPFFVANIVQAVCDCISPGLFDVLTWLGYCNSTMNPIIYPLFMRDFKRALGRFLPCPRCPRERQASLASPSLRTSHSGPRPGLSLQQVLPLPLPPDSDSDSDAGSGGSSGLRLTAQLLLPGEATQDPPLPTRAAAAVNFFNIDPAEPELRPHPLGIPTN
Description for Acetylcholinesterase: Inhibition of electric eel AChE using acetylthiocholine iodide as substrate preincubated with compounds for 20 mins followed by substrate addition and measured after 5 mins by Ellman's method
Description for HepG2: Neuroprotective activity against H202 induced oxidative stress in human HepG2 cells measured after 1 hr by DCFH-DA staining based analysis
Description for SH-SY5Y: Neuroprotective activity against H202 induced oxidative stress in human SH-SY5Y cells measured after 1 hr by DCFH-DA staining based analysis

The compound `CC(Oc1cc(Cl)cc(Cl)c1)c1nc(N)nc(N2CCN(C)CC2)n1` (stereo not drawn) returned an IC50 against Acetylcholinesterase of 3.95 µM.

Take `CCC(Oc1cc(Cl)ccc1Cl)c1nc(N)nc(N2CCN(C)CC2)n1` (stereo not drawn): the IC50 at Acetylcholinesterase was 11.2 µM; with SH-SY5Y, 81.3 µM; in the assay with HepG2, 7.4 µM.

Regarding `CC(Oc1ccc(Cl)c(Cl)c1)c1nc(N)nc(N2CCN(C)CC2)n1` (stereo not drawn), the IC50 against Acetylcholinesterase is 9.52 µM.

For `CCCCC(Oc1cccc(Cl)c1Cl)c1nc(N)nc(N2CCN(C)CC2)n1` (stereo not drawn), the figures for the IC50 at Cholinesterase, in the assay on SH-SY5Y and with HepG2 were 0.5 µM, 29.9 µM and 13.2 µM, respectively.

For the compound `CN1CCN(c2nc(N)nc(C(C)(C)Sc3ccccc3Cl)n2)CC1`, the Ki at D(2) dopamine receptor stood at 727 nM; in [1], 892 nM; in [2], 5.92 µM; in [3], 476 nM.

With `CN1CCN(c2nc(N)nc(C(C)(C)Oc3ccccc3Cl)n2)CC1`, the Ki amounted to 797 nM at D(2) dopamine receptor, 573 nM in assay [1], 5.63 µM in assay [2] and 79 nM in [3].

Regarding `COc1ccc(NS(=O)(=O)c2ccc(I)cc2)cc1N1CCN(C)CC1`, the Emax in [4] was determined as 100%.

As to `CCC(Sc1ccccc1)c1nc(N)nc(N2CCN(C)CC2)n1` (racemic), the Ki at D(2) dopamine receptor came to 7270 nM; in assay [1], 427 nM; in assay [2], 2.47 µM; in assay [3] it was 127 nM.

Regarding `CC(Sc1cc(Cl)ccc1Cl)c1nc(N)nc(N2CCN(C)CC2)n1` (racemic), the values for the Ki (at D(2) dopamine receptor; in assay [2]; in [3]) were 4780 nM, 61 µM and 169 nM, respectively. The compound also registered an IC50 against Acetylcholinesterase of 9.19 µM.

Turning to `CCC(Sc1cccc(Cl)c1Cl)c1nc(N)nc(N2CCNCC2)n1` (racemic), the Ki in [1] worked out at 115 nM; in [2], 3.32 µM.

On to `CC(Sc1ccc(Cl)c(Cl)c1)c1nc(N)nc(N2CCN(C)CC2)n1` (racemic), for which the Ki at D(2) dopamine receptor came to 530 nM; in assay [2] it was 2.87 µM; in [3] it was 152 nM.

In the case of `CCC(Sc1ccc(Cl)c(Cl)c1)c1nc(N)nc(N2CCN(C)CC2)n1` (racemic), the Ki at D(2) dopamine receptor was determined as 897 nM; in assay [1], 547 nM; in assay [2] it was 5.16 µM; in [3], 181 nM. The IC50 came to 4.57 µM at Acetylcholinesterase and 15 µM against Cholinesterase.

In the case of `CCCC(Sc1cc(Cl)cc(Cl)c1)c1nc(N)nc(N2CCN(C)CC2)n1` (racemic), the Ki came out at 663 nM at D(2) dopamine receptor, 500 nM in assay [1], 8.63 µM in [2] and 74 nM in [3].

On to `CCC(Oc1cccc(Cl)c1Cl)c1nc(N)nc(N2CCNCC2)n1` (racemic), for which the results for the Ki in [1], in assay [2] and in assay [3] were 118 nM, 4.51 µM and 179 nM, respectively. The compound further came in with an IC50 on Cholinesterase of 10 µM.

On to `CCC(Sc1cc(Cl)cc(Cl)c1)c1nc(N)nc(N2CCN(C)CC2)n1` (racemic), for which the Ki on D(2) dopamine receptor amounted to 362 nM; in [1] it was 178 nM; in assay [2] it was 6.04 µM; in [3], 103 nM. Moreover, the IC50 at Cholinesterase is 9.8 µM.

`CCCC(Sc1cc(Cl)ccc1Cl)c1nc(N)nc(N2CCN(C)CC2)n1` (racemic): the Ki amounted to 971 nM at D(2) dopamine receptor, 6.21 µM in assay [2] and 9 nM in assay [3].

Take `CCC(Oc1ccccc1)c1nc(N)nc(N2CCNCC2)n1` (racemic): the Ki in assay [1] came out at 4820 nM; in assay [2], 8.15 µM; in assay [3], 414 nM. Besides, the IC50 in the assay on SH-SY5Y worked out at 42.1 µM; in the assay on HepG2 it was 0.02 µM.

For `CCCCC(Sc1cccc(Cl)c1Cl)c1nc(N)nc(N2CCN(C)CC2)n1` (racemic), the results for the Ki in [1], in [2] and in assay [3] were 179 nM, 1.8 µM and 169 nM, respectively. Moreover, the IC50 on Cholinesterase was 9.95 µM.

Consider `CCC(Oc1cc(Cl)ccc1Cl)c1nc(N)nc(N2CCNCC2)n1` (racemic), for which the Ki in assay [1] was 62 nM; in assay [2], 3.72 µM.

Regarding `CCC(Sc1cc(Cl)ccc1Cl)c1nc(N)nc(N2CCNCC2)n1` (racemic), the Ki amounted to 188 nM in assay [1] and 5.67 µM in [2].

`CCC(Sc1cc(Cl)ccc1Cl)c1nc(N)nc(N2CCN(C)CC2)n1` (racemic): the Ki on D(2) dopamine receptor was determined as 1000 nM; in [1], 551 nM; in assay [2], 5.14 µM. This compound also displayed an IC50 against Cholinesterase of 12.1 µM.

For `CCC(Sc1cccc(Cl)c1Cl)c1nc(N)nc(N2CCN(C)CC2)n1` (racemic), the Ki was found to be 879 nM on D(2) dopamine receptor, 2150 nM in [1] and 2.56 µM in assay [2].

For `CC(Sc1cc(Cl)cc(Cl)c1)c1nc(N)nc(N2CCN(C)CC2)n1` (racemic), the Ki came out at 362 nM on D(2) dopamine receptor, 178 nM in assay [1], 6.04 µM in [2] and 103 nM in [3]. This compound registered a 50% inhibitory concentration (IC50) against Acetylcholinesterase of 5.37 µM.

`CC(=O)Oc1ccccc1C(=O)O` [ASPIRIN] returned an IC50 in “cells” of 17.4 µM.

As a reminder, the IC50 is the concentration needed to halve the response being measured. A word on the Ki: it is the equilibrium dissociation constant of an inhibitor or competing ligand from its target. A low value points to tighter binding. For orientation: Emax means the maximal effect, on the per cent scale that the assay sets.

For the origin of these results see ChEMBL document CHEMBL5625226, “Synthesis, computational and experimental pharmacological studies for (thio)ether-triazine 5-HT6R ligands with noticeable action on AChE/BChE and chalcogen-dependent intrinsic activity in search for new class of drugs against Alzheimer's disease” (Eur J Med Chem, 2023).
